In patent US20120220567A1, “BENZO-FUSED OXAZEPINE COMPOUNDS AS STEAROYL-COENZYME A DELTA-9 DESATURASE INHIBITORS” (priority 2009, published 2012):

Molecular target: T1, SCD-1 (Homo sapiens, UniProt O00767)
T1 construct: 50 μg of protein from a HepG2 cell P2 pellet; endogenous in cells; host or cells: HepG2 cells (P2 pellet)
T1 sequence (O00767 1-359): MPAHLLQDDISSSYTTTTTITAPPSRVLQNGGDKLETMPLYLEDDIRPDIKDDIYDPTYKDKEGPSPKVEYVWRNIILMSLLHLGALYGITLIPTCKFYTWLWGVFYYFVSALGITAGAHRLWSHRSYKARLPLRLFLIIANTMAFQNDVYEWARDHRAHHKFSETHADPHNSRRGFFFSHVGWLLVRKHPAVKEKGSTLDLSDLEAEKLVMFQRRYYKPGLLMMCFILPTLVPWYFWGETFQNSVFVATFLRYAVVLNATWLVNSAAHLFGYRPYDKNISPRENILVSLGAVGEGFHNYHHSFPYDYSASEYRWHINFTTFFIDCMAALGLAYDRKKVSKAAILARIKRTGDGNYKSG
Experiment: Stearoyl-CoA desaturase assay (HepG2 cell P2 pellet)
Assay type: biochemical
Details: Table 3, compounds of formula (Ic); protein from HepG2 cell P2 pellet, 20 μM stearoyl-CoA, 15 min at 25° C.; read-out: Ave IC50

| SMILES | IC50 [nM] |
| --- | --- |
| CC(C)(C)c1ccc(CN2CCC3(CCN(c4ccc(C(=O)O)cn4)CC3)Oc3c(F)cccc32)cc1 [Compound 145] | 50 to 499 |
| CC(C)(C)c1ccc(CN2CCC3(CCN(c4ccc(C(=O)NCCc5c[nH]cn5)cn4)CC3)Oc3c(F)cccc32)cc1 [Compound 148] | 500 to 10000 |
| CC(C)(C)c1ccc(CN2CCC3(CCN(c4ccc(C(=O)NCCC5CC5)nn4)CC3)Oc3c(F)cccc32)cc1 [Compound 150] | 50 to 499 |
| CN(C)CCNC(=O)c1ccc(N2CCC3(CC2)CCN(Cc2cccc(C(F)(F)F)c2)c2ccccc2O3)nn1 [Compound 154] | 500 to 10000 |
| CCCNC(=O)c1ccc(N2CCC3(CC2)CCN(Cc2cccc(C(F)(F)F)c2)c2ccccc2O3)nn1 [Compound 157] | 50 to 499 |
| CC(C)CNC(=O)c1ccc(N2CCC3(CC2)CCN(Cc2cccc(C(F)(F)F)c2)c2ccccc2O3)nn1 [Compound 158] | 50 to 499 |
| CC(C)(C)CCNC(=O)c1ccc(N2CCC3(CC2)CCN(Cc2cccc(C(F)(F)F)c2)c2ccccc2O3)nn1 [Compound 159] | 500 to 10000 |
| CC(C)CCNC(=O)c1ccc(N2CCC3(CC2)CCN(Cc2cccc(C(F)(F)F)c2)c2ccccc2O3)nn1 [Compound 160] | 50 to 499 |
| O=C(NCCCO)c1ccc(N2CCC3(CC2)CCN(Cc2cccc(C(F)(F)F)c2)c2ccccc2O3)nn1 [Compound 161] | 50 to 499 |
| CCNC(=O)c1ccc(N2CCC3(CC2)CCN(Cc2cccc(C(F)(F)F)c2)c2ccccc2O3)nn1 [Compound 167] | 50 to 499 |
| O=C(NCC1CC1)c1ccc(N2CCC3(CC2)CCN(Cc2cccc(C(F)(F)F)c2)c2ccccc2O3)nn1 [Compound 168] | 50 to 499 |
| O=C(NCCC1CC1)c1ccc(N2CCC3(CC2)CCN(Cc2cccc(C(F)(F)F)c2)c2ccccc2O3)cc1 [Compound 171] | 500 to 10000 |
| O=C(O)c1ccc(N2CCC3(CC2)CCN(Cc2cccc(C(F)(F)F)c2)c2ccccc2O3)nn1 [Compound 172, 6-(5-(3-(trifluoromethyl)benzyl)-4,5-dihydro-3H-spiro[benzo-[b][1,4]oxazepine-2,4′-piperidine]-1′-yl)pyridazine-3-carboxylic Acid] | 500 to 10000 |
| O=C(NCCc1ccncc1)c1ccc(N2CCC3(CC2)CCN(Cc2cccc(C(F)(F)F)c2)c2cccc(F)c2O3)nn1 [Compound 174] | 0.5 to 49 |
| O=C(NCCC1CC1)c1ccc(N2CCC3(CC2)CCN(Cc2cccc(C(F)(F)F)c2)c2cccc(F)c2O3)nn1 [Compound 175] | 0.5 to 49 |
| CCc1ccc(CN2CCC3(CCN(c4ccc(C(=O)NCCC5CC5)nn4)CC3)Oc3ccccc32)cc1 [Compound 176] | 0.5 to 49 |
| CCc1ccc(CN2CCC3(CCN(c4ccc(C(=O)NCCC5CC5)cn4)CC3)Oc3ccccc32)cc1 [Compound 177] | 50 to 499 |
| CC(C)Oc1ccc(CN2CCC3(CCN(c4ccc(C(=O)NCCC5CC5)nn4)CC3)Oc3ccccc32)cc1 [Compound 178] | 0.5 to 49 |
| CC(C)Oc1ccc(CN2CCC3(CCN(c4ccc(C(N)=O)nn4)CC3)Oc3ccccc32)cc1 [Compound 179] | 0.5 to 49 |
| O=C(NCCC1CC1)c1ccc(N2CCC3(CC2)CCN(Cc2cc4ccccc4o2)c2ccccc2O3)nn1 [Compound 180] | 0.5 to 49 |
| CC(C)c1ccc(CN2CCC3(CCN(c4ccc(C(=O)NCCC5CC5)nn4)CC3)Oc3ccccc32)cc1 [Compound 181] | 0.5 to 49 |
| CC(C)c1ccc(CN2CCC3(CCN(c4ccc(C(N)=O)nn4)CC3)Oc3ccccc32)cc1 [Compound 182] | 0.5 to 49 |
| O=C(NCCC1CC1)c1ccc(N2CCC3(CC2)CCN(Cc2ccc(Oc4ccccc4)cc2)c2ccccc2O3)nn1 [Compound 183] | 0.5 to 49 |
| NC(=O)c1ccc(N2CCC3(CC2)CCN(Cc2ccc(Oc4ccccc4)cc2)c2ccccc2O3)nn1 [Compound 184] | 0.5 to 49 |

The next lines start with the values.

| IC50 [nM] | SMILES |
| --- | --- |
| 0.5 to 49 | CC(C)(C)c1ccc(CN2CCC3(CCN(c4ccc(C(=O)NCCc5ccncc5)nn4)CC3)Oc3c(F)cccc32)cc1 [Compound 144] |
| 0.5 to 49 | O=C(NCCC1CC1)c1ccc(N2CCC3(CC2)CCN(Cc2cccc(C(F)(F)F)c2)c2ccccc2O3)nn1 [Compound 151] |
| 0.5 to 49 | O=C(NCCc1ccccc1)c1ccc(N2CCC3(CC2)CCN(Cc2cccc(C(F)(F)F)c2)c2ccccc2O3)nn1 [Compound 155] |
| 0.5 to 49 | CCCCNC(=O)c1ccc(N2CCC3(CC2)CCN(Cc2cccc(C(F)(F)F)c2)c2ccccc2O3)nn1 [Compound 156] |
| 0.5 to 49 | O=C(NCCc1c[nH]cn1)c1ccc(N2CCC3(CC2)CCN(Cc2cccc(C(F)(F)F)c2)c2ccccc2O3)nn1 [Compound 162] |
| 0.5 to 49 | O=C(NCCc1cccnc1)c1ccc(N2CCC3(CC2)CCN(Cc2cccc(C(F)(F)F)c2)c2ccccc2O3)nn1 [Compound 163] |
| 0.5 to 49 | NC(=O)c1ccc(N2CCC3(CC2)CCN(Cc2cccc(C(F)(F)F)c2)c2ccccc2O3)nn1 [Compound 164] |
| 0.5 to 49 | O=C(NCCc1ccncc1)c1ccc(N2CCC3(CC2)CCN(Cc2cccc(C(F)(F)F)c2)c2ccccc2O3)nn1 [Compound 165] |
| 0.5 to 49 | COC(=O)CCNC(=O)c1ccc(N2CCC3(CC2)CCN(Cc2cccc(C(F)(F)F)c2)c2ccccc2O3)nn1 [Compound 166] |
| 0.5 to 49 | O=C(NCCC1CC1)c1ccc(N2CCC3(CC2)CCN(Cc2cccc(C(F)(F)F)c2)c2ccccc2O3)nc1 [Compound 169] |
| 0.5 to 49 | COC(=O)c1ccc(N2CCC3(CC2)CCN(Cc2cccc(C(F)(F)F)c2)c2ccccc2O3)nn1 [Compound 170, methyl 6-(5-(3-(trifluoromethyl)benzyl)-4,5-dihydro-3H-spiro-[benzo[b][1,4]oxazepine-2,4′-piperidine]-1′-yl)pyridazine-3-carboxylate] |
| 0.5 to 49 | COC(=O)CCNC(=O)c1ccc(N2CCC3(CC2)CCN(Cc2cccc(C(F)(F)F)c2)c2cccc(F)c2O3)nn1 [Compound 173] |
